The source of these data is patent publication US10150760B2, “Compounds for use in preparing heterocyclic triazole agonists of the APJ receptor” (AMGEN INC., priority 2016, dated 2018).

The target in this test is human APJ receptor (Homo sapiens (Human), UniProt P35414). As to the kind of experiment: [35S]GTPγS binding assay on membranes from CHO cells stably expressing human APJ receptor. It is filed as biochemical. Particulars: read-out: Activity hAPJ SPA EC50 IP. In a few lines:
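Membranes from CHO cells stably expressing human APJ incubated with ligand, 0.2 nM [35S]GTPγS and WGA SPA beads in HEPES pH 7.5 with 5 mM MgCl2, 200 mM NaCl, 3 μM GDP, 90 min at RT. Nonspecific binding defined with 100 μM GTPγS; EC50 by non-linear regression.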

human APJ receptor, sequence (P35414 whole entry): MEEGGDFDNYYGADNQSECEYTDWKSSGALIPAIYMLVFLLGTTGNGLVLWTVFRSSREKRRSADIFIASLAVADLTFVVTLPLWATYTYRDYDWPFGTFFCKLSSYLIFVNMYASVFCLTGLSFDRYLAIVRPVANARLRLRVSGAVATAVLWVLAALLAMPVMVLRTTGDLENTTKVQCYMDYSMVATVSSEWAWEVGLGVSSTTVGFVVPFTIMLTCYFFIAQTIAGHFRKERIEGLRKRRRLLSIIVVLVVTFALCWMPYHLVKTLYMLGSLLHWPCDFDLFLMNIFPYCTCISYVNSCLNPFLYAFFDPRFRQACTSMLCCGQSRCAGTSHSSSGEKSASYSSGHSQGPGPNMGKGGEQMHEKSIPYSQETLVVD

By EC50 is commonly meant the concentration giving half of the maximal effect. As to “(1S,2S)-N-(4-(4,6-dimethoxypyrimidin-5-yl)-5-((R)-5,5-dimethyltetrahydrofuran-3-yl)-4H-1,2,4-triazol-3-yl)-1-isopropoxy-1-(5-methylpyrimidin-2-yl)propane-2-sulfonamide or (1S,2S)-N-(4-(4,6-dimethoxypyrimidin-5-yl)-5-((S)-5,5-dimethyltetrahydrofuran-3-yl)-4H-1,2,4-triazol-3-yl)-1-isopropoxy-1-(5-methylpyrimidin-2-yl)propane-2-sulfonamide [Example 314.0]”, the EC50 was 71 nM.

Turning to “(1S,2S)-N-(4-(4,6-dimethoxypyrimidin-5-yl)-5-((R)-tetrahydrofuran-3-yl)-4H-1,2,4-triazol-3-yl)-1-(5-fluoropyrimidin-2-yl)-1-isopropoxypropane-2-sulfonamide or (1S,2S)-N-(4-(4,6-dimethoxypyrimidin-5-yl)-5-((S)-tetrahydrofuran-3-yl)-4H-1,2,4-triazol-3-yl)-1-(5-fluoropyrimidin-2-yl)-1-isopropoxypropane-2-sulfonamide [Example 321.0]”, the EC50 was determined as 68 nM.

As for “(1S,2S)-N-(4-(4,6-dimethoxypyrimidin-5-yl)-5-((R)-tetrahydrofuran-3-yl)-4H-1,2,4-triazol-3-yl)-1-(5-fluoropyrimidin-2-yl)-1-isopropoxypropane-2-sulfonamide or (1S,2S)-N-(4-(4,6-dimethoxypyrimidin-5-yl)-5-((S)-tetrahydrofuran-3-yl)-4H-1,2,4-triazol-3-yl)-1-(5-fluoropyrimidin-2-yl)-1-isopropoxypropane-2-sulfonamide [Example 322.0]”, the EC50 stood at 310 nM.

“(1S,2S)-N-(4-(4,6-dimethoxypyrimidin-5-yl)-5-((R)-tetrahydrofuran-3-yl)-4H-1,2,4-triazol-3-yl)-1-isopropoxy-1-(5-methylpyridin-2-yl)propane-2-sulfonamide or (1S,2S)-N-(4-(4,6-dimethoxypyrimidin-5-yl)-5-((S)-tetrahydrofuran-3-yl)-4H-1,2,4-triazol-3-yl)-1-isopropoxy-1-(5-methylpyridin-2-yl)propane-2-sulfonamide [Example 323.0]”: the EC50 stood at 47 nM.

As to “(1S,2S)-N-(4-(4,6-dimethoxypyrimidin-5-yl)-5-((R)-tetrahydrofuran-3-yl)-4H-1,2,4-triazol-3-yl)-1-isopropoxy-1-(5-methylpyridin-2-yl)propane-2-sulfonamide or (1S,2S)-N-(4-(4,6-dimethoxypyrimidin-5-yl)-5-((S)-tetrahydrofuran-3-yl)-4H-1,2,4-triazol-3-yl)-1-isopropoxy-1-(5-methylpyridin-2-yl)propane-2-sulfonamide [Example 324.0]”, the EC50 is 380 nM.

With “(2R)-N-(4-(2,6-dimethoxyphenyl)-5-(tetrahydro-2H-pyran-4-yl)-4H-1,2,4-triazol-3-yl)-1-(5-fluoro-2-pyrimidinyl)-2-propanesulfonamide and (2S)-N-(4-(2,6-dimethoxyphenyl)-5-(tetrahydro-2H-pyran-4-yl)-4H-1,2,4-triazol-3-yl)-1-(5-fluoro-2-pyrimidinyl)-2-propanesulfonamide [Example 15.0]”, the EC50 turned out to be 470 nM.

For the substance “(2R)-N-(4-(2,6-dimethoxyphenyl)-5-(tetrahydro-2H-pyran-4-yl)-4H-1,2,4-triazol-3-yl)-1-(5-fluoro-2-pyrimidinyl)-2-propanesulfonamide or (2S)-N-(4-(2,6-dimethoxyphenyl)-5-(tetrahydro-2H-pyran-4-yl)-4H-1,2,4-triazol-3-yl)-1-(5-fluoro-2-pyrimidinyl)-2-propanesulfonamide [Example 16.0]”, the EC50 came out at 380 nM.

Consider “(2R)-N-(4-(2,6-dimethoxyphenyl)-5-(tetrahydro-2H-pyran-4-yl)-4H-1,2,4-triazol-3-yl)-1-(5-fluoro-2-pyrimidinyl)-2-propanesulfonamide or (2S)-N-(4-(2,6-dimethoxyphenyl)-5-(tetrahydro-2H-pyran-4-yl)-4H-1,2,4-triazol-3-yl)-1-(5-fluoro-2-pyrimidinyl)-2-propanesulfonamide [Example 17.0]”, for which the EC50 worked out at 810 nM.

For “(2R,3S)-N-(4-(2,6-dimethoxyphenyl)-5-((S)-tetrahydrofuran-2-yl)-4H-1,2,4-triazol-3-yl)-3-(5-methylpyrimidin-2-yl)butane-2-sulfonamide or (2R,3S)-N-(4-(2,6-dimethoxyphenyl)-5-((R)-tetrahydrofuran-2-yl)-4H-1,2,4-triazol-3-yl)-3-(5-methylpyrimidin-2-yl)butane-2-sulfonamide [Example 219.0]”, the EC50 turned out to be 220 nM.

In the case of “(2R,3S)-N-(4-(2,6-dimethoxyphenyl)-5-((S)-tetrahydrofuran-2-yl)-4H-1,2,4-triazol-3-yl)-3-(5-methylpyrimidin-2-yl)butane-2-sulfonamide or (2R,3S)-N-(4-(2,6-dimethoxyphenyl)-5-((R)-tetrahydrofuran-2-yl)-4H-1,2,4-triazol-3-yl)-3-(5-methylpyrimidin-2-yl)butane-2-sulfonamide [Example 220.0]”, the EC50 was 510 nM.

With “(2S,3R)-3-(5-Chloropyrimidin-2-yl)-N-(4-(3,5-dibromo-2,6-dimethoxyphenyl)-5-((R)-tetrahydrofuran-3-yl)-4H-1,2,4-triazol-3-yl)butane-2-sulfonamide or (2S,3R)-3-(5-chloropyrimidin-2-yl)-N-(4-(3,5-dibromo-2,6-dimethoxyphenyl)-5-((S)-tetrahydrofuran-3-yl)-4H-1,2,4-triazol-3-yl)butane-2-sulfonamide [Example 254.0]”, the EC50 was 310 nM.

As to “(2S,3R)-3-(5-chloro-2-pylimidinyl)-N-(4-(1,3-dimethoxy-2-propanyl)-5-((2R,5R)-5-methyltetrahydro-2-furanyl)-4H-1,2,4-triazol-3-yl)-2-butanesulfonamide or (2S,3R)-3-(5-chloro-2-pyrimidinyl)-N-(4-(1,3-dimethoxy-2-propanyl)-5-((2S,5S)-5-methyltetrahydro-2-furanyl)-4H-1,2,4-triazol-3-yl)-2-butanesulfonamide [Example 375.0]”, the EC50 was 92 nM.

As for “(2S,3R)-3-(5-chloro-2-pyridinyl)-N-(4-(1,3-dimethoxy-2-propanyl)-5-((2R,5R)-5-methyltetrahydro-2-furanyl)-4H-1,2,4-triazol-3-yl)-2-butanesulfonamide or (2S,3R)-3-(5-chloro-2-pyridinyl)-N-(4-(1,3-dimethoxy-2-propanyl)-5-((2S,5S)-5-methyltetrahydro-2-furanyl)-4H-1,2,4-triazol-3-yl)-2-butanesulfonamide [Example 372.0]”, the EC50 was 240 nM.

On to “(2S,3R)-3-(5-chloro-2-pyridinyl)-N-(4-(1,3-dimethoxy-2-propanyl)-5-((2R,5R)-5-methyltetrahydro-2-furanyl)-4H-1,2,4-triazol-3-yl)-2-butanesulfonamide or (2S,3R)-3-(5-chloro-2-pyridinyl)-N-(4-(1,3-dimethoxy-2-propanyl)-5-((2S,5S)-5-methyltetrahydro-2-furanyl)-4H-1,2,4-triazol-3-yl)-2-butanesulfonamide [Example 373.0]”, for which the EC50 amounted to 8 nM.
